We go through twelve compounds from patent publication US10544150B2, “NK-3 receptor selective antagonist compounds, pharmaceutical composition and methods for use in NK-3 receptors mediated disorders” (Ogeda SA, priority 2010, dated 2020).

For this experiment, the target named is human NK-3 receptor (Homo sapiens (Human), UniProt P29371). Nature of the experiment: 3H-SB222200 binding competition assay with human NK-3 receptor. Particulars: 3H-SB222200 displacement, CHO cell membranes expressing human NK3 receptor; read-out: Ki range. As to the method: The affinity of compounds of the invention for the tachykinin receptors was determined by measuring the ability of the compounds of the invention to displace a radiolabeled ligand from its specifics binding site.
human NK-3 receptor, sequence (P29371 whole entry): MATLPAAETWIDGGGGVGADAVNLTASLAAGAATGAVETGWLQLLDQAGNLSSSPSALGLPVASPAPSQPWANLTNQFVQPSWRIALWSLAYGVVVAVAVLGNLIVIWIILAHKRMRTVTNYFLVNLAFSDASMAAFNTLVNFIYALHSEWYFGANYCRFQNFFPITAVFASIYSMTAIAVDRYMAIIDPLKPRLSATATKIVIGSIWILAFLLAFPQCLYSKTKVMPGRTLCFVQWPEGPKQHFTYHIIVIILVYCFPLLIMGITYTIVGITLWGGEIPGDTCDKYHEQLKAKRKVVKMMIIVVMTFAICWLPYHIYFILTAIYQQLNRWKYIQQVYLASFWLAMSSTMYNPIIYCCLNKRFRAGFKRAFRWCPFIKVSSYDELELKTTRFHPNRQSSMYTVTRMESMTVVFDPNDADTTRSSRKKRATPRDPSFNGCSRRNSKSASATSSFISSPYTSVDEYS
^3H-SB222200 Binding Competition Assay with Human NK-3 Receptor
The ability of the compounds of the invention to inhibit the binding of the NK-3 receptor selective antagonist SB222200 was assessed by an in vitro radioligand binding assay. Membranes were prepared from Chinese hamster ovary recombinant cells which express the human NK3 receptor. The membranes were incubated with 5 nM ^3H-SB222200_(ARC) in a HEPES 25 mM/NaCl 0.1M/CaCl2 1 mM/MgCl2 5 Mm/BSA 0.5%/Saponin 10 μg/ml buffer at pH 7.4 and various concentrations of the compounds of the invention. The amount of tritiated SB222200 bound to the receptor was determined after filtration by the quantification of membrane associated radioactivity using the TopCount-NXT reader (Packard). […] In Table 3 biological results obtained using the ^3H-SB222200 binding competition assay with compounds of the invention are set out in tabulated form. In this table the calculated Ki is given. The Ki value obtained (in accordance with the protocol set forth above) is represented as follows: “+++” means Ki<500 nM; “++” means 500 nM≤Ki≤1 μM; “+” means 1 μM<Ki≤5 μM; “#” means Ki>5 μM.

Consider `C[C@H]1c2nnc(-c3csc(-c4ccc(F)cc4)n3)n2CCN1C(=O)c1ccc(F)cc1` [Compound 160, (S)-(4-fluorophenyl)(3-(2-(4-fluorophenyl)thiazol-4-yl)-8-methyl-5,6-dihydro-[1,2,4]triazolo[4,3-a]pyrazin-7(8H)-yl)methanone], for which the Ki was in the range of 1000 to 5000 nM.

Take `O=C(c1ccc(F)cc1)N1CCn2c(nnc2-c2csc(-c3ccc(C(F)(F)F)cc3)n2)C1` [Compound 24, (4-fluorophenyl)(3-(2-(4-(trifluoromethyl)phenyl)thiazol-4-yl)-5,6-dihydro-[1,2,4]triazolo[4,3-a]pyrazin-7(8H)-yl)methanone]: the Ki is under 500 nM.

On to `CC1c2nnc(-c3csc(-c4ccc(F)cc4)n3)n2CCN1C(=O)c1ccc(F)cc1` (stereo not drawn) [Compound 70, (4-fluorophenyl)(3-(2-(4-fluorophenyl)thiazol-4-yl)-8-methyl-5,6-dihydro-[1,2,4]triazolo[4,3-a]pyrazin-7(8H)-yl)methanone], for which the Ki is under 500 nM.

Take `O=C(c1ccc(F)cc1)N1CCn2c(cnc2-c2csc(-c3ccc(F)cc3)n2)C1` [Compound 260, (4-fluorophenyl)(3-(2-(4-fluorophenyl)thiazol-4-yl)-5,6-dihydroimidazo[1,5-a]pyrazin-7(8H)-yl)methanone]: the Ki was under 500 nM.

In the case of `Cn1nc(-c2ccccc2)cc1-c1nnc2n1CCN(C(=O)c1ccc(-c3cccs3)cc1)C2` [Compound 220, (3-(1-methyl-3-phenyl-1H-pyrazol-5-yl)-5,6-dihydro-[1,2,4]triazolo[4,3-a]pyrazin-7(8H)-yl)(4-(thiophen-2-yl)phenyl)methanone], the inhibition constant Ki is under 500 nM.

As to `C[C@@H]1c2nnc(-c3csc(N4CCOCC4)n3)n2CCN1C(=O)c1ccc(-c2ccccc2)cc1` [Compound 118, (R)-[1,1′-biphenyl]-4-yl(8-methyl-3-(2-morpholinothiazol-4-yl)-5,6-dihydro-[1,2,4]triazolo[4,3-a]pyrazin-7(8H)-yl)methanone], the Ki is under 500 nM.

Take `O=C(c1ccc(F)cc1)N1CCn2c(nnc2-c2csc(N3CCCCC3)n2)C1` [Compound 33, (4-fluorophenyl)(3-(2-(piperidin-1-yl)thiazol-4-yl)-5,6-dihydro-[1,2,4]triazolo[4,3-a]pyrazin-7(8H)-yl)methanone]: the Ki is under 500 nM.

As to `Cn1nc(-c2ccccc2)cc1-c1nnc2n1CCN(C(=O)c1ccc(F)cc1)C2` [Compound 225, (4-fluorophenyl)(3-(1-methyl-3-phenyl-1H-pyrazol-5-yl)-5,6-dihydro-[1,2,4]triazolo[4,3-a]pyrazin-7(8H)-yl)methanone], the Ki fell in the range of 1000 to 5000 nM.

Take `O=C(c1ccc(-c2cccs2)cc1)N1CCn2c(nnc2-c2csc(-c3cccs3)n2)C1` [Compound 194, (4-(thiophen-2-yl)phenyl)(3-(2-(thiophen-2-yl)thiazol-4-yl)-5,6-dihydro-[1,2,4]triazolo[4,3-a]pyrazin-7(8H)-yl)methanone]: the Ki is under 500 nM.

Take `Cc1cccc(-c2nnc3n2CCN(C(=O)c2ccc(F)cc2)C3C)n1` (stereo not drawn) [Compound 278, (4-fluorophenyl)(8-methyl-3-(6-methylpyridin-2-yl)-5,6-dihydro-[1,2,4]triazolo[4,3-a]pyrazin-7(8H)-yl)methanone]: the Ki was under 500 nM.

For `CC(C)C1c2nnc(-c3csc(-c4ccccc4)n3)n2CCN1C(=O)c1ccc(F)cc1` (stereo not drawn) [Compound 43, (4-fluorophenyl)(8-isopropyl-3-(2-phenylthiazol-4-yl)-5,6-dihydro-[1,2,4]triazolo[4,3-a]pyrazin-7(8H)-yl)methanone], the Ki fell in the range of 1000 to 5000 nM.

Regarding `O=C(c1ccc(-c2ccccc2)cc1)N1CCn2c(nnc2-c2ccccn2)C1` [Compound 6, [1,1′-biphenyl]-4-yl(3-(pyridin-2-yl)-5,6-dihydro-[1,2,4]triazolo[4,3-a]pyrazin-7(8H)-yl)methanone], the Ki lay in the range of 1000 to 5000 nM.

One may read the Ki as a measure of affinity in units of concentration, obtained from inhibition or displacement.
